Experimental data from patent US6080871A, “Sulfonamides and sulfamides as H3 receptor antagonists” (James Black Foundation Limited, priority 1996, dated 2000).

Key:
[1] = target: T1, H3 receptor (Cavia porcellus, UniProt Q9JI35); assay: H3 receptor bioassay (functional assay), guinea pig ileal longitudinal muscle myenteric plexus; assay type: cell-based; settings: antagonism of R-(α)-methylhistamine E/[A] curve, Schild's methods; electrically stimulated guinea pig ileum; variance ±0.15 log units; read-out: pKB (functional assay) (converted)
T1 construct: the longitudinal muscle layer and adhering myenteric plexus was teased away; from tissue; host or cells: ileal longitudinal muscle with adhering myenteric plexus of male Dunkin-Hartley guinea pigs
T1 sequence (Q9JI35 whole entry): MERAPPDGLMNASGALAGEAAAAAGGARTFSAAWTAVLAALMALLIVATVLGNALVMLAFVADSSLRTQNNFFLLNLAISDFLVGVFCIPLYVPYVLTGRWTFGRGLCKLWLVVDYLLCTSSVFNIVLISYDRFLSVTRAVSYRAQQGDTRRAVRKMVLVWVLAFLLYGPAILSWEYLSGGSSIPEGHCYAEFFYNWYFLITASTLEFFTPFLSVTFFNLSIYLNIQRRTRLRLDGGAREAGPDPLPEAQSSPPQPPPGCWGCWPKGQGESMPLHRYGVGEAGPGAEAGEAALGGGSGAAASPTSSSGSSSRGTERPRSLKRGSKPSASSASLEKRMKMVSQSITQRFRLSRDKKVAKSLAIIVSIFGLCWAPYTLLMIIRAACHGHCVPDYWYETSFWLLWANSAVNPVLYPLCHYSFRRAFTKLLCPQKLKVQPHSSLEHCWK
Description: The biological activity of the compounds of the examples was measured using the ileal longitudinal muscle, myenteric plexus assay described by Paton and Aboo Zar (J. Physiol. 194, 13-33 (1968)). Male Dunkin-Hartley guinea pigs (250-300 g) were employed. Briefly, a 50 cm portion of ileum proximal to the caecum was removed, after discarding the terminal 20 cm. Ileal segments (3 cm) were cleaned by passing Krebs-Henseleit buffer containing 3 μM mepyramine gently through the ileum using a Pasteur pipette (size: 13.8 cm length, 0.65 cm diameter). To avoid unnecessary damage to the tissue, Krebs-Henseleit buffer was passed through the ileal segment, while it was lying horizontally on a petri dish. Therefore, the ileum was not over-distended and the buffer flowed through with ease. Each segment was then passed over a Pasteur pipette and the longitudinal muscle layer and adhering myenteric plexus was teased away using moist cotton wool, by stroking tangentially away from the mesenteric attachment. The tissues were suspended in 20 ml organ baths containing Krebs-Henseleit buffer at 37±1° C. and gassed with […]. The tissues were ligated to two parallel stainless steel wires, situated between two platinum electrodes (0.76 cm length, 0.06 cm diameter). All measurements were recorded isometrically (Grass FTO3 transducer). Following an initial loading tension of 1 g, the tissues were stimulated with electrical pulses at a frequency of 0.1 Hz and a pulse duration of 0.5msec, as described by Kosterlitz & Watt (1968). Initially, the tissues were stimulated at supramaximal (1.3 fold times maximal) voltage for a period of 30 min and then the tissues were washed and re-stimulated. A "sighter dose" of the selective histamine H3 -receptor agonist, R-(α)-methylhistamine(0.3 μM) (Arrang et al., 1987), was administered. Upon generation of response, the "sighter dose" was removed from the tissues by "washout" (6 washes over 60 min) and during this period the electrical stimulation was switched off. The tissues were then re-stimulated and allowed to stabilise prior to the addition of drug treatments, which were allocated on a randomised block basis to the organ baths. Following the incubation period, a single cumulative E/[A] curve was obtained. The experimental E/[A] curve data was expressed as the percentage inhibition of the peak height of electrically-stimulated contraction. Antagonist affinity values were calculated from the degree of rightward shift of the R-(α)-methylhistamine E/[A] curves using Schild's methods (Arunlatcshama & Schild, 1949).
(§1) Typical variance in the functional assay is ±0.15 log units. Typical variance in the binding assay is ±0.12 log units. This means that if the discrepancy between the two assays is greater than about 0.5 log units, then this difference on average is significant.

[2] = target: T2, Histamine H3 (Cavia porcellus, UniProt Q9JI35); assay: Histamine H3 radioligand binding assay, [3H]-R-α-methylhistamine, guinea pig ileum longitudinal muscle myenteric plexus membranes; settings: 3 nM [3H]-R-α-methylhistamine, 165 min, 21±3° C., Cheng Prusoff, variance ±0.12 log units; for Ki: read-out: pK1 (binding assay) (converted)
T2 construct: ileum longitudinal muscle myenteric plexus membranes; from tissue; host or cells: ileum longitudinal muscle myenteric plexus membranes of male Dunkin Hartley guinea pigs
T2 sequence (Q9JI35 whole entry): as above
Description: Histamine H3 Radioligand Binding Assay
Male Dunkin Hartley guinea pigs (200-300 g) were used. The small intestine was rapidly removed (cut ~5 cm from caecum and 5 cm from stomach) and placed in ice-cold 20 mM Hepes-NaOH buffer (pH7.4 at 21±3° C.). The tissue was cut into ~10 cm segments, flushed through with ice-cold 20 mM Hepes-NaOH buffer and placed in a beaker containing fresh buffer at 4° C. 10 cm segments of ileum were threaded onto a glass pipette and the longitudinal muscle myenteric plexus was peeled away from the circular muscle using damp cotton-wool. Longitudinal muscle myenteric plexus was immediately placed in ice-cold Viaspan® solution (~100 ml for tissue from 3 guinea pigs) and placed in the refrigerator for 24 hours.
Pre-soaked tissue was weighed and minced with scissors. The tissue was then homogenised in Viaspan® using a polytron (Kinematica AG; PT-DA 3020/2TS, 3×~1-2 s). 50 ml of 500 mM Tris HCl (pH6.9 at 21±3° C.) was added to the tissue and the mixture centrifuged at 39,800×g for 12 min at 4° C. The supernatant was discarded and rehomogenised in 100 ml ice-cold 20 mM Hepes-NaOH buffer (pH7.4 at 21±3° C.) using a teflon-in-glass homogeniser (setting 10; 3×). The homogenate was recentrifuged at 39,800×g and the pellet resuspended in 20 mM Hepes-NaOH buffer (pH7.4 at 21±3° C.), to a tissue concentration of 50 mg.ml^-1, using a polytron (Brinkman, PT10, 3×~1 s).
Guinea pig ileum longitudinal muscle myenteric plexus membranes (400 μl) were incubated for 165 min at 21±3° C. in a final volume of 500 μl with 20 mM Hepes-NaOH buffer containing [^3 H]-R-α-methylhistamine (50 μl; 3 nM) and competing compound. Total and non-specific binding of [^3 H]-R-α-methylhistamine were defined using 50 μl of buffer and 50 μl of 10 μM thioperamide, respectively. The assay was terminated by rapid filtration through Whatman GF/B filters, presoaked (2 hr) in 0. 1% polyethyleneimine,using a Brandell Cell Harvester. The filters were washed (3×3 ml) with ice-cold 50 mM Tris-HCl (pH6.9 at 21±3° C.), transferred into scintillation vials, 5 ml liquid scintillation cocktail was added and after 4 hours the bound radioactivity was determined by counting (4 min) in a Beckman liquid scintillation counter.
Data are analysed using GraphPad prism and the general equation for a competition curve with variable Hill slope (nH).
Y=Non-specific binding+(Total binding-Non-specific binding)/1+10^((logIC.sbsp.50^-X).n.sbsp.H^)
X is the log concentration of competing compound, Y is the binding obtained at each concentration of X, pIC50 is the concentration of the competitor required to compete for half of the specific binding.
The IC50 is converted to the K1 using the Cheng Prusoff equation, […]
IC50 is the concentration of competitor required to compete for half the specific binding, L is the radioligand concentration used, KD is the equilibrium dissociation constant for the radioligand determined by saturation experiments.
as §1

| Compound | Kb [1] [nM] | pK1 (binding assay) [2] | Ki [2] [nM] |
| --- | --- | --- | --- |
| O=S(=O)(Cc1ccc(Cl)cc1)NCCCCc1c[nH]cn1 [Example 10, N-[4-(4(5)-Imidazoyl)butyl]-(4-chlorophenyl)methanesulfonamide] | 2.4 | 8.53 |  |
| O=S(=O)(NCCCc1c[nH]cn1)NCc1ccc(Cl)cc1 [Example 14, N-[3-(4(5)-Imidazoyl)propyl]-N'-(4-chlorophenyl)methyl-sulfamide] | 91.2 | 7.28 |  |
| O=S(=O)(Cc1ccc2ccccc2c1)NCCc1c[nH]cn1 [Example 19, N-[2-(4(5)-Imidazoyl)ethyl]-2-naphthylmethanesulfonamide] | > 10000 |  | 1120 |
| O=S(=O)(/C=C/c1ccccc1)NCCc1c[nH]cn1 [Example 20, (E)-N-[2-(4(5)-Imidazoyl)ethyl]-2-phenylethenesulfonamide] | > 3160 | 7.26 |  |
| O=S(=O)(CCC1CCCCC1)NCCc1c[nH]cn1 [Example 23, N-[2-(4(5)-Imidazoyl)ethyl]-2-cyclohexylethanesulfonamide] | 1350 | 7.55 |  |
| O=S(=O)(NCCCCc1c[nH]cn1)NCc1ccc(Cl)c(Cl)c1 [Example 41, N-[4-(4(5)-Imidazoyl)butyl]-N'-(3,4-dichlorophenyl)methyl-sulfamide] | 3.89 |  | 4.27 |
| O=S(=O)(NCCCCc1c[nH]cn1)NCc1cccc(Cl)c1 [Example 42, N-[4-(4(5)-Imidazoyl)butyl]-N'-(3-chlorophenyl)methyl-sulfamide] | 13.8 |  | 16.2 |
| O=S(=O)(NCCCCc1c[nH]cn1)NCc1ccccc1Cl [Example 43, N-[4-(4(5)-Imidazoyl)butyl]-N'-(2-chlorophenyl)methyl-sulfamide] | 380 |  | 56.2 |
| O=S(=O)(NCCCCc1c[nH]cn1)NCc1ccc(C(F)(F)F)cc1 [Example 47, N-[4-(4(5)-Imidazoyl)butyl]-N'-(4-(trifluoromethyl)phenyl)methyl-sulfamide] | 3.31 |  | 2.69 |
| O=S(=O)(NCCCCc1c[nH]cn1)NCc1ccc(-c2ccccc2)cc1 [Example 49, N-[4-(4(5)-Imidazoyl)butyl]-N'-(4-biphenyl)methyl-sulfamide] | 4.79 | 8.12 |  |
| O=S(=O)(NCCCCc1c[nH]cn1)NCc1ccc2ccccc2c1 [Example 50, N-[4-(4(5)-Imidazoyl)butyl]-N'-2-naphthylmethyl-sulfamide] | 18.6 |  | 16.6 |
| O=S(=O)(NCCCCc1c[nH]cn1)NCC1CCCCC1 [Example 51, N-[4-(4(5)-Imidazoyl)butyl]-N'-cyclohexylmethyl-sulfamide] | 97.7 |  | 79.4 |

Now from value to molecule:

| Kb [1] [nM] | pK1 (binding assay) [2] | Ki [2] [nM] | Compound |
| --- | --- | --- | --- |
| 9.77 | 7.95 |  | O=S(=O)(Cc1ccc(Cl)cc1)NCCCCCCc1c[nH]cn1 [Example 11, N-[6-(4(5)-Imidazoyl)hexyl]-(4-chlorophenyl)methanesulfonamide] |
| 6.31 | 8.23 |  | O=S(=O)(NCCCCCc1c[nH]cn1)NCc1ccc(Cl)cc1 [Example 12, N-[5-(4(5)-Imidazoyl)pentyl]-N'-(4-chlorophenyl)methyl-sulfamide] |
| 2.09 | 8.56 |  | O=S(=O)(NCCCCc1c[nH]cn1)NCc1ccc(Cl)cc1 [Example 13, N-[4-(4(5)-Imidazoyl)butyl]-N'-(4-chlorophenyl)methyl-sulfamide] |
| 1.7 | 8.36 |  | O=S(=O)(NCCCCCCc1c[nH]cn1)NCc1ccc(Cl)cc1 [Example 15, N-[6-(4(5)-Imidazoyl)hexyl]-N'-(4-chlorophenyl)methyl-sulfamide] |
| 132 | 7.40 |  | O=S(=O)(NCCCCCCCc1c[nH]cn1)c1ccc2ccccc2c1 [Example 29] |
| 240 | 6.97 |  | O=S(=O)(NCCCCCCCCc1c[nH]cn1)c1ccc2ccccc2c1 [Example 30, N-[8-(4(5)-Imidazoyl)octyl]-2-naphthalenesulfonamide] |
| 1620 | 7.07 |  | O=S(=O)(NCCCCCCCCCCc1c[nH]cn1)c1ccc2ccccc2c1 [Example 31, N-[10-(4(5)-Imidazoyl)decyl]-2-naphthalenesulfonamide] |
| 43.7 | 7.44 |  | O=S(=O)(Cc1ccc(Cl)cc1)NCCCCCCCc1c[nH]cn1 [Example 32, N-[7-(4(5)-Imidazoyl)heptyl]-(4-chlorophenyl)methanesulfonamide] |
| 229 | 7.27 |  | O=S(=O)(Cc1ccc(Cl)cc1)NCCCCCCCCc1c[nH]cn1 [Example 33, N-[8-(4(5)-Imidazoyl)octyl]-(4-chlorophenyl)methanesulfonamide] |
| 4.27 | 8.15 |  | O=S(=O)(NCCCCCCCc1c[nH]cn1)NCc1ccc(Cl)cc1 [Example 38, N-[7-(4(5)-Imidazoyl)heptyl]-N'-(4-chlorophenyl)methyl-sulfamide] |
| 42.7 |  | 15.8 | O=S(=O)(NCCCCCCCCc1c[nH]cn1)NCc1ccc(Cl)cc1 [Example 39, N-[8-(4(5)-Imidazoyl)octyl]-N'-(4-chlorophenyl)methyl-sulfamide] |
| 3.24 | 8.68 |  | O=S(=O)(NCCCCc1c[nH]cn1)NCc1ccc(I)cc1 [Example 44, N-[4-(4(5)-Imidazoyl)butyl]-N'-(4-iodophenyl)methyl-sulfamide] |
| 1.23 | 8.71 |  | O=S(=O)(NCCCCc1c[nH]cn1)NCc1ccc(Br)cc1 [Example 45, N-[4-(4(5)-Imidazoyl)butyl]-N'-(4-bromophenyl)methyl-sulfamide] |
| 20 | 7.84 |  | O=S(=O)(NCCCCc1c[nH]cn1)NCc1ccc(F)cc1 [Example 46, N-[4-(4(5)-Imidazoyl)butyl]-N'-(4-fluorophenyl)methyl-sulfamide] |
| 87.1 | 7.58 |  | COc1ccc(CNS(=O)(=O)NCCCCc2c[nH]cn2)cc1 [Example 48, N-[4-(4(5)-Imidazoyl)butyl]-N'-(4-methoxyphenyl)methyl-sulfamide] |
